The values below come from patent publication US12599646B2, “Peptide-containing composition for use for treating neoplastic lesions” (CYTOVATION ASA, priority 2020, dated 2026).

Square brackets hold non-standard residues; d marks the D form. Peptide text beside a SMILES is read from it.

The nature of data set [1]: Short-term stability testing: percentage recovery of CyPep-1 from formulations. The following applies: 40° C., t=2 weeks.
Data set [2] in a line: Saturated solubility of CyPep-1 in liquid excipients. It is filed as physicochemical. The following applies: 25° C. The protocol:
A sample of the saturated supernatant was examined using light microscopy with a magnification of 200-1000× using a LEICA® (Germany) DME light microscope. The saturated supernatant was mounted on a microscope slide and examined immediately using both polarised and non-polarised light for the presence of CyPep-1 crystals. The dilution (Step (vii)) was performed immediately after the centrifugation step. • (vii) Since the solubility of CyPep-1 in these excipients was unknown, an appropriate dilution was made to achieve a concentration of CyPep-1 in sample diluent (deionised water) that was above the limit of quantification of the HPLC method, prior to analysis. For excipients which were saturated following the addition of ca. 20 mg of CyPep-1 the following dilution was performed: • (a) Into a 10 mL volumetric flask ca. 50 mg of the saturated solution was weighed. • (b) The volumetric flask from Step (a) was made to volume with sample diluent (deionised water) and vortex mixed for 30 s. • (c) An aliquot of the diluted sample from Step (b) was transferred to an HPLC vial and analysed by HPLC as described above. • (viii) For excipients which were saturated following the addition of ca. 40 mg of CyPep-1 the dilution was performed as detailed in Step (vii), however a 20 mL volumetric flask was used. Stability Testing—Method

A further data set deals with neoplastic cells. The conditions noted are these: as shown in WO 2011/092347; cited from earlier work.

For `CC[C@@H](C)[C@@H](NC(=O)[C@@H](C)NC(=O)[C@@H](CCCCN)NC(=O)[C@@H](C)NC(=O)[C@H](NC(=O)[C@@H](CCCNC(=N)N)NC(=O)[C@@H](CC(C)C)NC(=O)[C@H](NC(=O)[C@@H](CCCCN)NC(=O)CNC(=O)[C@@H](CCCNC(=N)N)NC(=O)[C@@H](CCCNC(=N)N)NC(=O)[C@@H](CCCNC(=N)N)NC(=O)[C@@H](CCC(N)=O)NC(=O)[C@@H](CCCNC(=N)N)NC(=O)[C@@H](CCCNC(=N)N)NC(=O)[C@@H](CCCCN)NC(=O)[C@@H](CCCCN)NC(=O)[C@@H](CCCNC(=N)N)NC(=O)CNC(=O)[C@H](N)Cc1ccc(O)cc1)[C@H](C)O)C(C)C)C(=O)N[C@H](Cc1ccc(O)cc1)C(=O)N[C@H](CCCCN)C(=O)N[C@H](CCCNC(=N)N)C(=O)N[C@H](Cc1ccc(O)cc1)C(=O)N[C@@H](C(=O)N[C@H](CCC(=O)O)C(=O)O)[C@H](C)CC` [CyPep-1] (H-[dY]G[dR][dK][dK][dR][dR][dQ][dR][dR][dR]G[dK][dT][dL][dR][dV][dA][dK][dA][dI][dY][dK][dR][dY][dI][dE]-OH; N-terminus and C-terminus assumed), the “stability of CyPep-1 in cream and ointment formulations” value in data set [1] is “unstable”. Further, the “saturated solubility of CyPep-1” value in data set [2] (benzyl alcohol) is listed as “more than 10 % w/w”; in data set [2] (deionised water (pH 4, 5, 6 or 7)), “more than 10 % w/w”; in data set [2] (ethanol) it was “more than 10 % w/w”; in data set [2] (phenoxyethanol), “more than 10 % w/w”. The “cytotoxicity to neoplastic cells” value with neoplastic cells was “selectively cytotoxic”.
